# Source: US20110306137A1, “METHODS AND COMPOSITIONS FOR MODULATING DIFFERENTIATION OF PLURIPOTENTIAL CELLS” (priority 2007, published 2011)
# B1: BMP-6: recombinant human bone morphogenetic protein 6 (protein, UniProt P22004 375-513, looked up)
# Bone morphogenetic protein 6: SASSRRRQQSRNRSTQSQDVARVSSASDYNSSELKTACRKHELYVSFQDLGWQDWIIAPKGYAANYCDGECSFPLNAHMNATNHAIVQTLVHLMNPEYVPKPCCAPTKLNAISVLYFDDNSNVILKKYRNMVVRACGCH
# Experiments:
# DRCs = assay: Osteogenic differentiation of DRCs with DAPT; format: cell-based, human; details: presence of BMP6
# Procedure: (§1) Clustered Jag1/Fc was added to cultures at a final concentration of 5 μg/ml Jag1/Fc and 50 μg/ml antibody. Control cultures received only the antibody. Additional cultures received Jag1/Fc and anti-Fc as above, along with 5 μM N—[N-(3,5-Difluorophenacetyl)-L-alanyl]-S-phenylglycine t-butyl ester (DAPT), a […]-secretase inhibitor. Stock solutions of 2 mM DAPT in DMSO were obtained from Sigma-Aldrich, St. Louis, Mo. […]-secretase is a protease that, upon activation of transmembrane Notch protein by a Notch ligand, cleaves the Notch protein at a site that allows release of the Notch intracellular domain. Certain cultures also included BMP-6 (final concentration 500 ng/ml), as described in Example 5.
# (§2) After 10 days in culture, cells were fixed in methanol, stained with Alizarin Red and examined by microscopy as described in Example 5.
# MASCs [1] = assay: Adipogenic differentiation of MASCs with clustered Jag1/Fc, DAPT, BMP6; format: cell-based, human
# Procedure: MASCs were prepared essentially as described in Example 1. Culture in adipogenic differentiation medium was as described in Example 6. Treatment of cells with Anti-Fc and Clustered Jag1/Fc were as described in Example 7. Fixation, staining with Oil Red O and analysis of adipogenic differentiation were as described in Example 6.
# MASCs [2] = assay: Osteogenic differentiation of MASCs with Notch activation by clustered Jag1/Fc, with or without DAPT; format: cell-based, human; details: for effect on Jagged stimulation of osteogenesis: 5 μM DAPT
# Procedure: MASCs (prepared essentially as described in Example 1) were plated at 10^4 cells/well in 96-well plates in […]MEM (Mediatech, Herndon, Va.) supplemented with 10% Fetal Bovine Serum (FBS, HyClone, Logan Utah) and cultured overnight. The next day, cells were transferred to osteogenic differentiation medium (composition described in Example 5).
# During the differentiation procedure, certain batches of cells were subjected to Notch activation via the Notch ligand Jagged. A fusion between the extracellular domain of the rat Jagged1 protein and the Fc region of human IgG (Jag1/Fc) was obtained from R&D Systems (Minneapolis, Minn.; Catalogue No. 599-JG), and the lyophilized preparation was reconstituted to a concentration of 1 mg/ml in PBS containing 0.1% (w/v) bovine serum albumin.
# The chimeric Jag1/Fc protein was “clustered” by preincubation with a ten-fold weight excess of goat anti-human Fc (Sigma, St. Louis Mo.). Before use, the antibody solution (2 mg/ml) was dialyzed overnight, with three changes, against PBS to remove sodium azide. The volume of antibody solution was not changed by dialysis. For clustering, Jag1/Fc (1 mg/ml in PBS+0.1% BSA) and anti-human Fc (2 mg/ml in PBS) were mixed and incubated at room temperature for 40 min prior to addition to the cell cultures.
# as §1, §2
# HES1 = assay: RT2 Profiler PCR Array Human Notch Signaling Pathway; format: cell-based; details: Jag-activated MASCs compared to MASCs
# Procedure: (§3) The expression of a number of genes involved in Notch signaling, and in signaling pathways that interact with the Notch pathway (Wnt, Shh), was compared in DRCs and MASCs, using a commercial array (RT^2 Profiler PCR Array Human Notch Signaling Pathway plate, SA Biosciences No. PAHS-059F). The genes that were analyzed are shown in Table 2 (taken from SA Biosciences online Catalogue). Notch pathway members include genes encoding Notch ligands, enzymes that modify the Notch protein and various transcriptional regulatory proteins that control the expression of the Notch pathway members. Notch pathway targets are genes whose expression is either directly or indirectly regulated by Notch activation. Wnt pathway members are Wnt ligands or proteins that participate in WNT-mediated signaling pathways. The Wnt pathway was investigated because of known crosstalk between the Notch and Wnt signaling pathways, and because it is involved in osteogenic differentiation, which is inhibited in DRCs.
# (§4) MASCs and DRCs, prepared and frozen as described in Examples 1-3, were thawed (Example 4), grown for 4-7 days in alpha-MEM/10% FBS/pen-strep, then replated into 10-cm Petri dishes at a concentration of 0.5×10^6 cells/dish, in duplicate. After re-plating, cells were grown for 4 days to allow intracellular levels of endogenous NICD, activated by trypsinization, to return to basal. At the end of this period, culture medium was carefully aspirated, the cells were lysed in 400 μl RLT Buffer (Qiagen, Valencia, Calif.), and the lysate was scraped from the plate.
# (§5) As a control, MASCs that had been exposed to clustered soluble Jagged1 protein, to activate the Notch signaling pathway (see Example 7), were also analyzed and compared to MASCs.
# (§6) The lysate was homogenized using a QiaShredder (Qiagen, Valencia, Calif.). The homogenate was mixed with ethanol, and the mixture was applied to a RNeasy column (Qiagen, Valencia, Calif.) and processed according to the manufacturer's instructions. The eluate was treated with a DNA-Free™ kit (Ambion, Austin, Tex.), according to the manufacturer's protocol, for elimination of genomic DNA.
# (§7) RNA concentration and purity was assayed on Nanodrop spectrophotometer (Thermo Scientific, Wilmington, Del.). […]
# (§8) cDNA samples, synthesized as described above, were diluted and added to RT^2 SYBR Green qPCR Master Mix (SA Biosciences) according to the manufacturer's recommendations. […] SYBR green fluorescence, normalized to controls also present on the array, is used a s a measure of mRNA level.
# (§9) Results were analyzed using analysis tools provided by SA Biosciences, assigning results from MASCs to the “Control” field and DRC results to the “Test” field, to obtain figures for relative changes in expression for the genes assayed. […]
# WISP1 = assay: as above; format: cell-based; details: Jag-activated MASCs compared to MASCs
# Procedure: as §3, §4, §5, §6, §7, §8, §9
# CCND1 = assay: as above; format: cell-based; details: Jag-activated MASCs compared to MASCs; two-fold criteria
# Procedure: as §3, §4, §5, §6, §7, §8, §9
# HR = assay: as above; format: cell-based; details: Jag-activated MASCs compared to MASCs
# Procedure: as §3, §4, §5, §6, §7, §8, §9
# [3] = test system: genes involved in Notch signaling; assay: RT2 Profiler PCR Array Human Notch Signaling Pathway, number of genes altered; format: cell-based; details: Jag-activated MASCs compared to MASCs; 84 genes tested
# Procedure: as §3, with “Wnt pathway members are Wnt ligands or proteins that participate in WNT-mediated signaling pathways. The Wnt pathway was investigated because of known crosstalk between the Notch and Wnt signaling pathways, and because it is involved in osteogenic differentiation, which is inhibited in DRCs.” left out
# As a control, MASCs that had been exposed to clustered soluble Jagged1 protein, to activate the Notch signaling pathway (see Example 7), were also analyzed and compared to MASCs. […]
# as §8, §9
# [4] = test system: adipogenic differentiation; assay: Adipogenic differentiation potential assay (Oil Red O staining); format: cell-based, human; details: BMP-6 100 ng/ml; day 17-21
# Procedure: For assay of adipogenic differentiation potential, cells were plated at 10^4 cells/well in 96-well plates in […]MEM (Mediatech, Herndon, Va.) supplemented with 10% Fetal Bovine Serum (FBS, HyClone, Logan Utah) and cultured overnight.
# The next day, the culture medium was replaced with DMEM (Mediatech, Herndon, Va.) containing high glucose, pyruvate, glutamine and 10% FBS supplemented with 1 μM Dexamethasone, […] 1-methyl-3 isobutylxanthine, 100 μM indomethacin and 10 μg/ml insulin (all supplements from Sigma-Aldrich, St. Louis, Mo.). This “adipogenic differentiation medium” was changed every 3-4 days.
# Adipogenic differentiation assays were conducted in the absence or presence of recombinant human bone morphogenetic protein 6 (BMP-6; R&D Systems, Minneapolis, Minn.) at a concentration of 100 ng/ml.
# On day 17-21 after transfer of cells into adipogenic differentiation medium, cells were tested for adipocytic differentiation by staining with Oil Red O. Cells were fixed by adding 10% formalin to the wells and incubating for 30-60 min at room temperature. Wells were then washed with 60% isopropanol and allowed to dry completely. Oil Red O working solution was freshly prepared from Oil Red stock solution (3.5 mg/ml in isopropanol) by diluting it 3:2 in water and filtering. Staining was conducted for 10 min; and the wells were then washed extensively with water. […]
# [5] = test system: osteogenic differentiation; assay: Osteogenic differentiation potential assay (Alizarin Red staining); format: cell-based, human; details: BMP-6 500 ng/ml; MASCs, DRCs, mock DRCs
# Procedure: For assay of osteogenic differentiation potential, cells (MASCs, DRCs or mock DRCs) were plated at 10^4 cells/well in 96-well plates in […]MEM (Mediatech, Herndon, Va.) supplemented with 10% Fetal Bovine Serum (FBS, HyClone, Logan Utah) and cultured overnight.
# The next day, the culture medium was replaced with DMEM (Mediatech, Herndon, Va.) containing high glucose, pyruvate, glutamine and 10% FBS supplemented with 50 μg/ml Ascorbic acid (L-ascorbic acid 2-phosphate, Wako Chemical, Ltd., Japan, added freshly before use), 10 mM β-glycerophosphate (Sigma-Aldrich, St. Louis, Mo.), and 100 nM Dexamethasone (Sigma-Aldrich, St. Louis, Mo.). This “osteogenic differentiation medium” was changed every 3-4 days.
# Osteogenic differentiation assays were conducted in the absence or presence of recombinant human bone morphogenetic protein 6 (BMP-6; R&D Systems, Minneapolis, Minn.), at a concentration of 500 ng/ml.
# On day 14 or 17 after the transfer of cells into osteogenic differentiation medium, cultures were assayed for the presence of osteocytes by Alizarin Red staining. Cells were fixed by adding 100% methanol to the wells and incubating on ice for 3 min. The wells were then rinsed with water, and 40 mM alizarin red S (Sigma-Aldrich, St. Louis, Mo.), pH 4.2 was added. […]
molecule,measurement,setting,value
"C[C@H](NC(=O)Cc1cc(F)cc(F)c1)C(=O)N[C@H](C(=O)OC(C)(C)C)c1ccccc1 [DAPT, N—[N-(3,5-Difluorophenacetyl)-L-alanyl]-S-phenylglycine t-butyl ester]",effect on osteogenic potential exhibited by DRCs,DRCs,reduced
same,effect on stimulation of adipogenesis by BMP6,MASCs [1]; DAPT with BMP6,enhanced further
same,effect on adipogenesis of MASCs,"MASCs [1]; DAPT, no BMP6",slightly enhanced adipogenesis
same,effect on Jagged stimulation of osteogenesis,MASCs [2]; absence of BMP6,completely reversed
same,effect on Jagged stimulation of osteogenesis,MASCs [2]; presence of BMP6 500 ng/ml,strongly reduced
"Jag1/Fc: fusion between the extracellular domain of the rat Jagged1 protein and the Fc region of human IgG, clustered with goat anti-human Fc",effect on BMP6-enhanced adipogenesis of MASCs,MASCs [1]; Jag with BMP6,reversed
same,effect on adipogenesis of MASCs,MASCs [1]; Jag with BMP6 and DAPT,no effect
same,effect on adipogenesis of MASCs,"MASCs [1]; clustered Jag1/Fc, absence of DAPT or BMP6",blocked
same,expression of Hes1,HES1,up-regulated
same,expression of Wisp1,WISP1,up-regulated
same,expression of CCND1 (cyclin D1),CCND1,not altered
same,expression of HR,HR,up-regulated
same,number of genes with activated expression (two-fold or more),[3],18 genes
same,number of genes with reduced expression (50% or less),[3],three
same,dose dependence of stimulation of osteogenesis,MASCs [2]; additional experiments,dose-dependent
same,effect on osteogenesis of MASCs (Alizarin Red),"MASCs [2]; clustered Jag1/Fc 5 μg/ml, absence or presence of BMP6, 10 days",osteogenesis was strongly enhanced
B1,effect on adipogenesis of MASCs,MASCs [1]; BMP6 in the differentiation medium,strongly enhanced adipogenesis
same,effect of BMP-6 on adipocytic differentiation of MASCs,[4],enhanced
same,effect of BMP-6 on degree of osteogenic differentiation,[5],increased the degree of osteogenic differentiation
